The values that follow come from patent publication US12378188B2, “Waterborne crosslinker composition” (priority 2020, dated 2025).

One data set relates to Rtkn. Kind of data set: ToxTracker genotoxicity assay, Rtkn GFP reporter. As to conditions: fold induction vs vehicle control.
The conditions of data set [1]: described in U.S. Pat. No. 5,133,997; cited from earlier work.
Data set [2] in a line: Storage stability of the crosslinker dispersion (gelling / coagulation). The following applies: dispersion pH 11 with TEA, Maxemul 7101.
Protocol: Functional performance and stability of the crosslinker dispersion were assessed using spot tests on coating surfaces, based on procedures from the DIN 68861-1 standard, and viscosity measurements using a Brookfield DVE-LV viscometer (S62 spindle at 60 rpm unless mentioned otherwise). For these tests, the crosslinker dispersion was stored in an oven at 50° C. for 4 weeks. Every week, the viscosity of the crosslinker dispersion was determined. […] This coating composition was filtered and applied to Leneta test cards using 100 μm wire rod applicators (Test 1). For reference, films were also cast from the same composition lacking the crosslinker dispersion (Test Blank). The films were dried for 1 hour at 25° C., then annealed at 50° C. for 16 hours. Subsequently, a piece of cotton wool was soaked in 1:1 EtOH: demineralized water and placed on the film for 1 hour.

With `CCCCOCC(CN1CC1)OC(=O)NCCCCCCn1c(=O)n(CCCCCCNC(=O)OC(COCCCC)CN2CC2)c(=O)n(CCCCCCNC(=O)OC(COCCCC)CN2CC2)c1=O` (stereo not drawn) [Composition 1], the “Rtkn GFP reporter induction level” value with Rtkn (With S9 rat liver extract, at 10% cytotoxicity, 3 h exposure and 24 h recovery) was 1.0; with Rtkn (With S9 rat liver extract, at 25% cytotoxicity, 3 h exposure and 24 h recovery) it was 1.1; with Rtkn (With S9 rat liver extract, at 50% cytotoxicity, 3 h exposure and 24 h recovery), 1.1; with Rtkn (Without S9 rat liver extract, at 10% cytotoxicity, 24 h exposure) it was 1.0; with Rtkn (Without S9 rat liver extract, at 25% cytotoxicity, 24 h exposure), 1.0; in the data set with Rtkn (Without S9 rat liver extract, at 50% cytotoxicity, 24 h exposure), 0.9.
Take `O=C(CCN1CC1)OCC(CO)(COC(=O)CCN1CC1)COC(=O)CCN1CC1` [XAMA-7]: in data set [1], the Stability in water result is “unstable in water”.
In the case of `O=C(NCCCCCCn1c(=O)n(CCCCCCNC(=O)OCCN2CC2)c(=O)n(CCCCCCNC(=O)OCCN2CC2)c1=O)OCCN1CC1` [Example C4], in data set [2], the “Storage stability of dispersion” value is “a storage stable dispersion was not obtained” and the “Time until severe coagulation was observed after preparation of the dispersion” value is not above 4 h.
